# Source: patent publication US6900239B2, “Tumor chemopotentiation using isocoumarin derivatives” (ILWZ ILEX Products, Inc., priority 2000, dated 2005)
# How the values were obtained:
# [1] = in vivo; cited from earlier work
# RPMI8662 cells = experiment: Cell viability by MTT assay; format: cell-based, human
# Method: (§1) The human multiple myeloma cell line MM1.S was maintained in RPMI1640 medium supplemented with 10% fetal bovine serum, 100 units/ml penicillin, and 100 μg/ml streptomycin at 37° C. in an atmosphere of 5% CO2 in air. Cells (3×10^4 cells/well) were seeded in 96 well-plates and incubated with increasing concentrations of DEX or DOX in the presence or absence of NM-3. NM-3 was added at concentrations of 0, 50, 100 and 200 μg/ml 2 hours before the addition of DOX or DEX. After 24 hours of DOX or DEX exposure, 10 μl of MTT reagent (Roche Molecular Biochemicals, final concentration 0.5 mg/ml) was added to each well and allowed to incubate for 4 hours. After the incubation, 100 μl of solubilization solution (10% sodium dodecyl sulfate in 0.01M HCl) was added to each well and allowed to incubate overnight. Optical density at 565 nm was determined using a spectrophotometer (Molecular Devices Corp.).
# (§2) The effects of NM-3 in combination with dexamethasone on the viability of RPM18662 and U266 human multiple meyeloma cells were investigated. Experimental conditions were as described in Example 11, with the exception that cells were seeded at 6×10^3 cells/well and the cells were incubated with the appropriate concentrations of NM-3 and DEX for either 48 or 72 hours prior to addition of the MTT reagent.
# U266 cells = experiment: Cell viability by MTT assay; format: cell-based, human
# Method: as §1, §2
# [2] = system: MDAMB-435 human breast tumor xenografts; experiment: MDAMB-435 orthotopic model, NM-3 with 5-Fluorouracil; format: in vivo, female NCRNU nude mice; details: NM-3 100 mg/kg/day i.p. alone
# Method: In order to evaluate the antitumor activity of NM-3 in combination with 5-Fluorouracil (5-FU) vs. MDAMB-435 human breast tumor xenografts, female NCRNU nude mice were implanted with MDAMB-435 cells into the subaxillary mammary fat pad. When the tumors were between 50 and 80 mm^3, NM-3 was administered via intraperitoneal (i.p.) injection daily at 10 and 100 mg/kg; 5-FU was administered via i.p. injection on days 0 and 14, at 10 mg/kg. Mice were weighed twice weekly, and tumor measurements were taken by calipers twice weekly. Mice were euthenized at the end of the treatment period. Upon termination, the mice were weighed, sacrificed and their tumors were excised.
# Initial studies were conducted with 5-FU to determine the optimal dose of this agent when administered in combination with NM-3.
# [3] = system: MM1.S human multiple myeloma cells; experiment: Cell cycle profile (PI staining, sub-G1 cells); format: cell-based
# Method: Apoptosis was determined by staining cells with annexin V-FITC and propidium iodide (PI). Cells were treated with DEX in the presence or absence of NM-3. NM-3 was added 2 hours before the addition of DEX. After 24 hours of DEX exposure, cells were washed twice with cold PBS, resuspended in binding buffer (10 mM HEPES/NaOH (pH 7.4), 140 mM NaCl, 2.5 mM CaCl2), and then stained with annexin V-FITC (Clontech Laboratories) and PI (Boehringer-Manheim). Apoptosis was analyzed by using a flow cytometer (EPICS XL-MCL, Coulter Corp). The cultured cells were also subjected to cell cycle analysis. Briefly, cells were washed twice with PBS and fixed with 70% ethanol. Cells were then washed with 0.5 ml PBS and 1.0 ml phosphate-citric acid buffer (0.2 M Na2HPO4 and 0.1 M citric acid (pH 7.8)), treated with 200 μg/ml RNase for 15 min at 37° C., and stained with 50 μg/ml PI for 30 min at room temperature in the dark. Cells were filtered through 35-μm diameter mesh to remove clumps. Nuclear staining was analyzed by a flow cytometer. Cells with fractional DNA content located on DNA frequency histograms to the left of the G1 peak (sub-G1 cells) were identified as apoptotic cells.
# [4] = system: Lewis Lung carcinoma (LLC) tumors; experiment: Radiation sensitivity of Lewis Lung carcinoma in vivo; set-up: species or system C57BL/6 female mice
# Method: To determine whether NM-3 treatment increases the radiation sensitivity of tumors in vivo, Lewis Lung carcinoma (LLC) tumors were established in C57BL/6 female mice (Frederick Cancer Research Institute) prior to NM-3 and radiation treatment. LLC cells (1×10^6 cells) were injected in the right hind limb of the mice and tumors were allowed to grow a volume of 250-350 mm^3. Tumor volumes were determined by direct measurements with calipers calculated by the formula: V=length×width×depth/2. Mice were then divided into groups and treated with NM-3 (100 mg/kg total) or PBS for two days before beginning radiation therapy. Animals then received NM-3 (25 mg/kg/day, i.p.) or PBS approximately four hours prior to radiation treatment. Tumors were irradiated using a GE Maxitron X-ray generator operating at 150 kV, 30 mA, using a 1 mm aluminum filter at a dose rate of 188 cGy/minute. Mice were shielded with lead except for the tumor-bearing area in the hind limb. Treatments and tumor measurements continued for a period of 17 days (see FIG. 4). […] Whereas control tumors reached 8 initial tumor volumes (Vo) after 8 days, X-ray treated tumors required 16 days to grow to this size. […] For comparison, data are plotted with two additional anti-angiogenic drugs, antiostatin and endostatin (see FIGS. 3B and 3C).
# [5] = system: Lewis Lung Carcinoma (LLC); experiment: NM-3 and ionizing radiation, tumor growth; format: in vivo, C57BL/6 nude mice
# Method: The effects of NM-3 and IR on tumor growth were assessed in Lewis Lung Carcinoma (LLC), Seg-1, and SQ-20B tumors implanted in C57BL/6 nude mice.
# By day 7, LLC tumors in the control group and the NM-3 group grew to 8.02±1.24 and 6.19±0.44 times original volume, respectively. Animals in these treatment groups were sacrificed on day 7 due to tumor burden. LLC tumors in the IR (20+20 Gy) group initially grew and then regressed to 1.06±0.08 times original volume (day 7). Regression was followed by regrowth to 2.98±0.83 times original volume at day 15 when the experiment was terminated. […] (FIG. 8A)
# [6] = system: MDAMB-435 human breast tumor xenografts; experiment: MDAMB-435 orthotopic model, NM-3 with paclitaxel, first study; format: in vivo, female NCRNU nude mice; details: NM-3 100 mg/kg I.P. daily alone
# Source text: In order to determine the effect of the combination of NM-3 with the cytotoxic drug, paclitaxel on human breast tumor xenografts, female NCRNU nude mice were implanted with MDAMB-435 cells into the subaxillary mammary fat pad. […]
# [7] = NM-3 alone, 50 and 100 μg/ml, 72 hours preincubation
# [8] = NM-3 alone, 48 hour preincubation
structure (smiles),measurement,setting,value
"COc1cc(O)c2c(=O)oc(C(C)C(=O)O)cc2c1 (stereo not drawn) [NM-3, 2-(8-hydroxy-6-methoxy-1-oxo-1H-2-benzopyran-3-yl) propionic acid]",Stability,[1],highly stable
same,Potentiation of DEX-induced cell death,RPMI8662 cells; 48 or 72 hours,potentiated DEX-induced cell death
same,Decrease in cell viability,RPMI8662 cells; [7],less evident
same,Cell viability,RPMI8662 cells; [8],dose dependent decrease in cell viability
same,Potentiation of DEX-induced cell death,U266 cells; 48 or 72 hours,potentiated DEX-induced cell death
same,Decrease in cell viability,U266 cells; [7],less evident
same,Cell viability,U266 cells; [8],dose dependent decrease in cell viability
same,% Tumor Growth Inhibition,[2],24.1%
same,Cell cycle profiles,"[3]; NM-3 alone, 50-200 μg/ml",only nominal effects
same,DEX-induced sub-G1 cells (apoptotic cells),"[3]; NM-3 with DEX 1 μM, 24 hours, concentration-dependent",increased DEX-induced sub-G1 cells
same,Further tumor growth,"[4]; NM-3 25 mg/kg/day i.p. added to radiotherapy, 17 days",markedly reduced
same,Tumor growth,[4]; NM-3 alone,did not inhibit tumor growth at all
same,Radiation sensitization of tumors,[4]; combined with X-ray treatment,dramatically enhances the sensitivity
same,Tumor volume,"[5]; NM-3 alone, day 7",6.19±0.44 times original volume
same,Mean tumor volume compared with IR alone,"[5]; NM-3 combined with IR (20+20 Gy), day 3, 4, 5, 9, 11, 13 and 15",significantly reduced mean tumor volume
same,% Tumor Growth Inhibition,[6],15.29%
same,Final Tumor Wt. (mg) +/− SEM,[6],180.0 ± 18.13 mg
same,Mice with Complete Shrinkage,[6]; n 9,0
